# Measured values from patent US20260115170A1, “Method of Ameliorating a Symptom or a Disease in a Human Caused by Fungus” (ISHIHARA SANGYO KAISHA, LTD., priority 2020, published 2026).
# Tests used:
# Assay type in all cases: cell-based
# [1] = test system: Aspergillus fumigatus (JCM10253); assay: Test Example 2 minimum inhibitory concentration; conditions: Sabouraud medium, 25° C. for 120 hours
# Description: (§1) Test Microbial Strains: Candida albicans (NBRC1594 Strain), Candida glabrata (JCM3761 Strain), Cryptococcus neoformans (JCM3685 Strain), Aspergillus fumigatus (JCM10253), Aspergillus niger (ATCC6725), Trichophyton rubrum (ATCCMYA4607), Trichophyton interdegitale (ATCC9533), Microsporum canis (NBRC7863), and Arthroderma vanbreuseghemii (JCM1891)
# (§2) The Candida microbes and the Cryptococcus microbe were cultured at 30° C. for 72 hours and the other microbes were cultured at 25° C. for 120 hours in Sabouraud media, and then suspended in 5 mL of PBS (containing 8 g of sodium chloride, 2.9 g of disodium hydrogen phosphate, 0.2 g of potassium chloride, and 0.2 g of potassium dihydrogen phosphate in 1000 mL) containing Tween80 (polyoxyethylene sorbitan monooleate: Kanto Chemical Co., Inc.) (1% (V/V))), and the resulting suspension was filtered through a cell strainer (φ40 μm). Spores were recovered from the filtrate by centrifugation (3500 rpm, 5 minutes) and washed twice with physiological saline, and then a spore suspension was prepared (1×10^6 spores/mL). 50 μL of the spore suspension was inoculated into a Sabouraud medium to which compound No. 6 dissolved in DMSO was added to have a predetermined concentration. The Candida microbes and the Cryptococcus microbe were cultured at 30° C. for 72 hours and the other microbes were cultured at 25° C. for 120 hours, then the presence or absence of colony growth was investigated, and the minimum inhibitory concentration was determined.
# [2] = test system: Aspergillus niger (ATCC6725); assay: Test Example 2 minimum inhibitory concentration; conditions: Sabouraud medium, 25° C. for 120 hours
# Description: as §1, §2
# [3] = test system: Cryptococcus neoformans (JCM3685 Strain); assay: Test Example 2 minimum inhibitory concentration; conditions: Sabouraud medium, 30° C. for 72 hours
# Description: as §1, §2
# [4] = test system: Microsporum canis (NBRC7863); assay: Test Example 2 minimum inhibitory concentration; conditions: Sabouraud medium, 25° C. for 120 hours
# Description: as §1, §2
# [5] = test system: Trichophyton interdegitale (ATCC9533); assay: Test Example 2 minimum inhibitory concentration; conditions: Sabouraud medium, 25° C. for 120 hours
# Description: as §1, §2
# [6] = test system: Malassezia restricta (IFM55992); assay: Test Example 3-2 antifungal activity test, minimum fungicidal concentration after 1 minute; conditions: 1 minute contact, MLNA medium, 32° C. for 72 hours, read-out: Minimum fungicidal concentration (MFC100)
# Description: Test Microbial Strain: Malassezia restricta (IFM55992) The Malassezia microbe (Malassezia restricta) cultured in a CHROMagar™ Malassezial Candida Prepared medium (peptone, special enzyme substrate mixture, chloramphenicol, olive oil, agar, manufactured by Kanto Chemical Co., Inc.) for 5 to 7 days was suspended in physiological saline, and a suspension thereof was prepared in such a way as to have an absorbance of 0.025 at 600 nm. Thereto, the test compound dissolved in DMSO was added in such a way as to provide a final concentration of 200, 100, 50, or 25 ppm, and after 1 minute, 10 μL of the suspension and 10 mL of physiological saline were placed in a syringe and stirred, and the syringe was connected to a 37 mm Quality Monitor (manufactured by Pall Corporation) followed by filtration and washing twice with 10 ml of physiological saline. The membrane filter was removed from the Quality Monitor, placed on a Leeming & Notman agar Modified medium (MLNA medium) (peptone, glucose, yeast extract, dried bovine bile, glycerol, glycerin stearate, Tween60, olive oil, agar), and subjected to culturing at 32° C. for 72 hours, the presence or absence of colony growth was investigated, and the minimum fungicidal concentration MFC100) was determined.
# [7] = test system: Microsporum canis (IFM63627); assay: Test Example 4 antifungal activity test, minimum inhibitory concentration (MIC100); conditions: Sabouraud medium, 32° C. for 72 hours
# Description: (§3) Test Microbial Strains: Trichophyton rubrum (ATCCMYA4607), and Microsporum canis (IFM63627)
# (§4) The antifungal activity was studied by partially modifying the method of Test Example 2. Trichophyton rubrum was cultured in a Sabouraud medium and Microsporum canis was cultured in a 1/10 Sabouraud medium, at 32° C. for 168 hours to form spores. For Trichophyton rubrum, hyphae were peeled off from the surface of the medium and recovered in a tube, physiological saline (Otsuka Normal Saline; containing 9 g of sodium chloride in 1000 mL) was added, these were wholly admixed using a disposable loop (type 1 (1 μL)) for dispersion, and a spore suspension containing the hyphae was recovered. […] The spore suspensions containing the hyphae of Trichophyton rubrum and Microsporum canis, respectively, were filtered through a cell strainer ((40 μm). The spores were recovered from the filtrate by centrifugation (3500 rpm, 5 minutes) and washed twice with physiological saline, and then a spore suspension was prepared (1×10^7 spores/mL). 10 μL of the spore suspension was inoculated into a Sabouraud medium to which the test compound dissolved in DMSO was added to have a predetermined concentration. Trichophyton rubrum, Microsporum canis was cultured at 32° C. for 72 hours, then the presence or absence of colony growth was investigated, and the minimum inhibitory concentration (MIC100) was determined.
# [8] = test system: Trichophyton rubrum (ATCCMYA4607); assay: as above; conditions: Sabouraud medium, 32° C. for 72 hours
# Description: as §3, §4
# [9] = test system: Microsporum canis (IFM63627); assay: Test Example 5 antifungal activity test, minimum fungicidal concentration (MFC100) by treatment time
# Description: as §3
# (§5) Trichophyton rubrum was cultured in a Sabouraud medium and Microsporum canis was cultured in a 1/10 Sabouraud medium, at 32° C. for 168 hours to form spores. For Trichophyton rubrum, hyphae were peeled off from the surface of the medium and recovered in a tube, physiological saline (Otsuka Normal Saline; containing 9 g of sodium chloride in 1000 mL) was added, these were wholly admixed using a disposable loop (type 1 (1 μL)) for dispersion, and a spore suspension containing the hyphae was recovered. For Microsporum canis, 10 mL of physiological saline was added directly onto the medium, and the surface was rubbed using a disposable loop to recover a spore suspension containing hyphae. The spore suspensions containing the hyphae of Trichophyton rubrum and Microsporum canis, respectively, were filtered through a cell strainer (\40 μm). The spores were recovered from the filtrate by centrifugation (3500 rpm, 5 minutes) and washed twice with physiological saline, and then a spore suspension was prepared (1×10^7 spores/mL). 10 μL of the spore suspension was inoculated into 90 μL of physiological saline to which test compound dissolved in DMSO was added to have a predetermined concentration. Every time a predetermined time elapsed, 10 μL of a test liquid containing the spores was collected, the spores were recovered by centrifugation (3500 rpm, 5 minutes) and washed twice with physiological saline, and then a 10 μL spore suspension was prepared. The 10 μL spore suspension was spotted onto a Sabouraud medium and subjected to culturing at 32° C. for 72 hours, the presence or absence of colony growth was investigated, and the minimum fungicidal concentration (MFC100) was determined.
# [10] = test system: Trichophyton rubrum (ATCCMYA4607); assay: as above
# Description: as §3, §5
compound,measurement,setting,value
"Cc1ccc(-c2nc(C#N)[nH]c2Cl)cc1Cl [Compound No. 6, 5-Chloro-4-(3-chloro-4-methylphenyl)-1H-imidazole-2-carbonitrile]",MIC,[1],62.5 µg/mL
same,MIC,[2],62.5 µg/mL
same,MIC,[3],31.3 µg/mL
same,MIC,[4],125 µg/mL
same,MIC,[5],62.5 µg/mL
same,MFC,[6],200 µg/mL
same,MIC,[7],5 µg/mL
same,MIC,[8],5 µg/mL
same,MFC,[9]; Treatment time 24 Hours,50 µg/mL
same,MFC,[9]; Treatment time 96 Hours,10 µg/mL
same,MFC,[10]; Treatment time 1 Hour,50 µg/mL
same,MFC,[10]; Treatment time 48 Hours,10 µg/mL
same,MFC,[10]; Treatment time 72 Hours,5 µg/mL
